Test results taken from patent publication US20160166701A1, “DELIVERY COMPOSITION FOR TOPICAL APPLICATIONS AND INJECTIONS AND OPHTHALMIC FORMULATIONS, METHODS FOR MANUFACTURING THEREOF, AND METHODS FOR DELIVERY OF A DRUG-DELIVERY COMPOSITION” (THERAKINE BIODELIVERY GMBH, priority 2013, published 2016).

Assays:
[1] = tested on: rabbits undergoing photorefractive keratectomy (PRK) surgery; assay: Rabbit PRK study of canakinumab incorporated in the matrix formulation (Example 3); assay type: in vivo
Procedure: In Example 3, a further rabbit study, similar to the design of Example 2 above, was performed using Novartis's canakinumab, a fully human antibody against Il-1 beta, incorporated in the matrix formulation using hyaluronic acid microparticles enhancing corneal adherence.
Even though it is described that canakinumab does differ from rabbit IL-1 in one amino acid, this study was performed to study the adherence characteristics, pk, and safety/tolerability of EpiKine delivering a different Il-1 inhibitor.

[2] = tested on: rabbits undergoing photorefractive keratectomy (PRK) surgery; assay: Rabbit photorefractive keratectomy (PRK) study of matrix formulation with IL-1ra versus steroid control (Example 2); assay type: in vivo; conditions: lower doses of IL-1ra and steroid group compared with higher dose of IL-1ra and control group, week 3; FIG. 6
Procedure: In Example 2; various concentrations of IL-1ra, i.e. 50 mg/ml or 2.5 mg/drop, 25 mg/ml or 1.25 mg/drop, and 5 mg/ml or 0.25 mg/drop (solutions A-C), were compared to a standard steroid control (fluorometholone) in rabbits undergoing photorefractive keratectomy (PRK) surgery. […] The final hyaluronic acid concentration (i.e. the hyaluronic acid concentration in the final matrix formulation) was 0.526% w/w, based on the total weight of the matrix formulation.
Each rabbit received PRK in both eyes at a 100 μm ablation depth. In each rabbit, the right eye (OD) served as the treated eye while the left eye (OS) served as control. […]
As before corneal clarity, forward scatter and haze measurement were used as out-come parameters. Haze formation and scattering was assessed via slit lamp exam by an ophthalmologist. The timing for re-epithelization to occur in both the treatment and control groups was measured.
In addition Pentacam technology was used to image the anterior segment of the eye via a rotating Scheimpflug process that supplied pictures in three dimensions, allowing for a precise measurement of the shape, thickness, and the contour of the cornea. Using this method, the center of the cornea, which is most critical for refractive surgery planning, is measured precisely because of this rotational imaging process. […]

[3] = tested on: freshly isolated and subcultured corneal fibroblasts; assay: α-SMA positive corneal fibroblasts in normal or serum-free media, confocal microscopy on day 4 (Example 4); assay type: cell-based, rabbit; conditions: serum-free media, 30 μg/mL, both subcultured and freshly isolated cells
Procedure: Since there is a variable amount of growth factors such as IL-1 in serum, the presence of serum may offset the effect of blocking IL-1 with the matrix formulation. In this experiment, freshly isolated and subcultured corneal fibroblasts (P2-P5) were seeded at a density of 5,000 cells/cm^2 and cultured with 30 μg/mL with human recombinant IL-1ra in either normal (NM) or Serum-Free (SF) media. Cells were analyzed on day 4 for levels of α-SMA with confocal microscopy. Cell numbers in serum-free samples were too low to recover enough protein for Western Blot analysis. 5 individuals independently counted 3 images of each of 3 samples per condition for α-SMA positive cells. Serum-free media induced lower α-SMA expression in freshly isolated cells but had no effect on subcultured cells. […] This finding supports that the phenotype of subcultured cells can be influenced by the matrix formulation.
Percentage of freshly isolated (FI) and subcultured (SC) RCFs expressing α-SMA as determined from confocal immunofluorescence on day 4 in the following conditions: normal media (NM), normal media with IL-1ra (NM+IL-1ra), serum-free (SF), and serum-free with IL-1ra (SF+IL-1ra). SF conditions decreased α-SMA levels in FI but not in SC cells. […] Data represents mean+/−standard error with n=3 (* indicate p<<0.001, θ indicate p<0.05, φ indicate p<0.005).

[4] = tested on: rabbits following photorefractive keratectomy (PRK); conditions: rabbit, in vivo; cited from earlier work
[5] = every data point, not statistically significant

| Compound | objective haze (HRT stromal haze) [1, 5] | Pentacam density measurements [2] | α-SMA expression [3] | serious adverse events such as infections or worsening infections [4] | epithelial closure ([1]; 1.25 mg concentration, within the canakinumab concentrations) | foam layer thickness (histologic analysis) ([1]; 2.5 mg and 1.25 mg concentration compared to 0.25 mg concentration) | objective haze (Pentacam) densitometry values ([1]; 2.5 mg concentration group, each time point) | corneal haze ([1]; 2.5 mg concentration, almost all data points, not statistically significant) | subjective haze (slit lamp exam) ([1]; 2.5 mg concentration, within the canakinumab concentrations) | objective haze (HRT stromal haze) ([1]; 2.5 mg, compared to control, week 2) | epithelial closure ([1]; all concentrations, compared to steroid and control group, not statistically significant) | adverse events ([1]; any of the concentrations, preliminary results) | subjective haze (slit lamp exam) ([1]; compared to the control group) | safety compared to steroids ([1]; time frame administered in this study) | subjective haze (slit lamp exam) ([1]; weeks 2, 4, 5, not statistically significant) |
| --- | --- | --- | --- | --- | --- | --- | --- | --- | --- | --- | --- | --- | --- | --- | --- |
| CC(=O)[C@@]1(O)CC[C@H]2[C@@H]3C[C@H](C)C4=CC(=O)C=C[C@]4(C)[C@@]3(F)[C@@H](O)C[C@@]21C [Steroids, fluorometholone, reference compound] | least haze |  |  |  |  |  |  |  |  |  |  |  |  |  |  |
| IL-1ra: IL-1ra is a biologic agent (protein) that blocks IL-1 |  | statistically significant difference | significantly decreased | No serious adverse events |  |  |  |  |  |  |  |  |  |  |  |
| canakinumab | less haze than the control group |  |  |  | trend for faster closure | thinner foam layers | trend for lower densitometry values | trend towards lower corneal haze | trend for lower subjective haze values | statistically significant less haze | took longer to heal | No adverse events | as effective as steroids | non-inferior to steroids | lower haze |
